3 compounds from patent US20230257347A1 (priority 2020, published 2023) can be followed below.

As usually defined, the pIC50 is −log10 of the IC50, conventionally taken in molar units. The pEC50 is the negative decadic logarithm of the EC50, by convention in mol/L.

The target of assay [1] is T1, Serotonin transporter (SERT) (Homo sapiens, UniProt P31645).
T1 construct: expressed in transfected cells
Nature of the assay: cell-based.

Assay [2] has as its target T2, 5-Hydroxytryptamine (Serotonin) Receptor 1A (5-HT1A) (Homo sapiens, UniProt P08908).
T2 sequence (P08908 1-422): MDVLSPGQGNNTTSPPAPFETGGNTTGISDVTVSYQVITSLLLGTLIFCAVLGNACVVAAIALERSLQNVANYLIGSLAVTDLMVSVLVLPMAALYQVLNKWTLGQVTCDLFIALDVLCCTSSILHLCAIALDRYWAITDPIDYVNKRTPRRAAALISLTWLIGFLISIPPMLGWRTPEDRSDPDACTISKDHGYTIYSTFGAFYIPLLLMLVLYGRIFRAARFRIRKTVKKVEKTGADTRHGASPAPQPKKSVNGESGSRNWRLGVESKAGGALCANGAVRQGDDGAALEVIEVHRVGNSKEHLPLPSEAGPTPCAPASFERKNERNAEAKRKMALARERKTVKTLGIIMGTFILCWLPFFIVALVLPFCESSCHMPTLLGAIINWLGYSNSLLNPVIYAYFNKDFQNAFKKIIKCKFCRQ
Briefly: cAMP secondary messenger assay, 5-HT1A. It counts as cell-based.

Assay [3] addresses T3, hERG (Homo sapiens, UniProt Q12809).
T3 construct: expressed in transfected cells
Briefly: Ion channel assay, hERG. Type of assay: cell-based.

Assay [4] concerns the target Dopamine Receptor D2 (DRD2S) (Homo sapiens, UniProt P14416). Nature of the assay: cAMP assay, DRD2S. It counts as cell-based. (In general: Cyclic AMP is a second messenger, typically raised through Gs and lowered through Gi signalling.)
Assay [5] deals with Opioid Receptor Delta 1 (OPRD1) (Homo sapiens, UniProt P41143). Briefly: cAMP assay, OPRD1. It counts as cell-based.
Opioid Receptor Delta 1 (OPRD1), sequence (P41143 whole entry): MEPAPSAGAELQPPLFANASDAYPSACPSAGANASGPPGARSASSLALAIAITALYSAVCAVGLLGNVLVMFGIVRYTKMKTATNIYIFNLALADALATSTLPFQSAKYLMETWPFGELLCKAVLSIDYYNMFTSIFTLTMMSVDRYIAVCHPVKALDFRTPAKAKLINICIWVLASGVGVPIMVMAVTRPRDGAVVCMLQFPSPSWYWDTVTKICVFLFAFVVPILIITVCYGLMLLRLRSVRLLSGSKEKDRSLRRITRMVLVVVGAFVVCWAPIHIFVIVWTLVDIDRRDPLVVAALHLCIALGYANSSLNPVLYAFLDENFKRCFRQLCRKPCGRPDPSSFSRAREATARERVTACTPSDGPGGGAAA
The target in assay [6] is T4, 5-Hydroxytryptamine (Serotonin) Receptor 3A (5-HT3A) (Homo sapiens, UniProt P46098).
T4 sequence (P46098 24-478): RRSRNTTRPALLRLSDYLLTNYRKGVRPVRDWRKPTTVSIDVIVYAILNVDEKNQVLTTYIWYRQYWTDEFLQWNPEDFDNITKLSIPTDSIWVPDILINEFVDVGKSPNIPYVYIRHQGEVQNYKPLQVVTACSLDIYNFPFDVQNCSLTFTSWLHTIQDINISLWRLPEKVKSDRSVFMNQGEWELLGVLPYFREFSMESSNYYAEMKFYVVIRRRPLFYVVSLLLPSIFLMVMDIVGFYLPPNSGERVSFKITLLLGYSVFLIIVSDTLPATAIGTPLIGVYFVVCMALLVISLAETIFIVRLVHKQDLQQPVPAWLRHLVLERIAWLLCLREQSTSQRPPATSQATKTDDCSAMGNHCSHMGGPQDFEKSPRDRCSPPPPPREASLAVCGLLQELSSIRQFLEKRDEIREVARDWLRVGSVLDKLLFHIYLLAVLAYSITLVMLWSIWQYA
Nature of the assay: Ion channel assay, 5-HT3A. It counts as cell-based.

For assay [7], the target named is T5, Cyclooxygenase 1 (COX1) (Homo sapiens, UniProt P23219).
T5 construct: purchased BPS Bioscience
T5 sequence (P23219 24-599): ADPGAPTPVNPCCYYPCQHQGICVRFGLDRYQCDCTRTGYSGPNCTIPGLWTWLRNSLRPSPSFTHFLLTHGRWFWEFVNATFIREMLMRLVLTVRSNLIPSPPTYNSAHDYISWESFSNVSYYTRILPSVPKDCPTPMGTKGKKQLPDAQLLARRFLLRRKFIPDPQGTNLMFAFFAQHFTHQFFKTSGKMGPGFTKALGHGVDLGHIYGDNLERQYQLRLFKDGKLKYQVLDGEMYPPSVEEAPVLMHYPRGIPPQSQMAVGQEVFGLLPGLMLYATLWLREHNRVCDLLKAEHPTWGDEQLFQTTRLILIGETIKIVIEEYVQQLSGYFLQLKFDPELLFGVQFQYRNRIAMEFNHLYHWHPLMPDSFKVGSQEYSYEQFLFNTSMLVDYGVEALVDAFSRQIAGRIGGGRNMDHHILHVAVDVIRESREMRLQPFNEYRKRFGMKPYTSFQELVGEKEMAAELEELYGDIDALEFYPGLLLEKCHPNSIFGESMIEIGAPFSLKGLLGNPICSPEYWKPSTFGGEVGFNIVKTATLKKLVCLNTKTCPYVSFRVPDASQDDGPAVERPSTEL
Briefly: Enzymatic assay, COX1. Type of assay: biochemical.

The target of assay [8] is Arginine Vasopressin Receptor 1A (AVPR1A) (Homo sapiens, UniProt P37288). Briefly: Calcium flux assay, AVPR1A. Type of assay: cell-based. (In general: Calcium flux is commonly read through the fluorescence of an indicator in the cells.)
Assay [9] addresses T6, CGMP-inhibited cyclic nucleotide phosphodiesterase 3A (PDE3A) (Homo sapiens, UniProt Q14432).
T6 construct: purchased Signal Chem
Nature of the assay: Enzymatic assay, PDE3A. It counts as biochemical.

Assay [10] concerns the target T7, Cholecystokinin Receptor A (CCKAR) (Homo sapiens, UniProt P32238).
T7 sequence (P32238 1-428): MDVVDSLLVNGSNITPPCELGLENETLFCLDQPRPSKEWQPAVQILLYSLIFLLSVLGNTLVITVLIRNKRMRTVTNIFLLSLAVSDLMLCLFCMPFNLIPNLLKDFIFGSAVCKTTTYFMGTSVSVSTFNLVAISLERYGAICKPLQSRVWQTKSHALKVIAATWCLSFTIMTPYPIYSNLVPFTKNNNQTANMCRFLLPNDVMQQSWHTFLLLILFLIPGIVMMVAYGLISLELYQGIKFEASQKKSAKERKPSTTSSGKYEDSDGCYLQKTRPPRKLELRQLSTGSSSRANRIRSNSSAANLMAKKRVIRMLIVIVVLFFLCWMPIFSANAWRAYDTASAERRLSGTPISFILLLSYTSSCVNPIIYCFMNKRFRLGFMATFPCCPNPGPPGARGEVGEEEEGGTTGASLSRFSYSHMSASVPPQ
Briefly: Calcium flux assay, CCKAR. Type of assay: cell-based.

In assay [11] the target is 5-Hydroxytryptamine (Serotonin) Receptor 2A (5-HT2A) (Homo sapiens, UniProt P28223). Briefly: Calcium flux secondary messenger assay, 5-HT2A. It counts as cell-based.
Assay [12] deals with T8, Adrenergic Receptor α1A (ADRA1A) (Homo sapiens, UniProt P35348).
T8 sequence (P35348 1-466): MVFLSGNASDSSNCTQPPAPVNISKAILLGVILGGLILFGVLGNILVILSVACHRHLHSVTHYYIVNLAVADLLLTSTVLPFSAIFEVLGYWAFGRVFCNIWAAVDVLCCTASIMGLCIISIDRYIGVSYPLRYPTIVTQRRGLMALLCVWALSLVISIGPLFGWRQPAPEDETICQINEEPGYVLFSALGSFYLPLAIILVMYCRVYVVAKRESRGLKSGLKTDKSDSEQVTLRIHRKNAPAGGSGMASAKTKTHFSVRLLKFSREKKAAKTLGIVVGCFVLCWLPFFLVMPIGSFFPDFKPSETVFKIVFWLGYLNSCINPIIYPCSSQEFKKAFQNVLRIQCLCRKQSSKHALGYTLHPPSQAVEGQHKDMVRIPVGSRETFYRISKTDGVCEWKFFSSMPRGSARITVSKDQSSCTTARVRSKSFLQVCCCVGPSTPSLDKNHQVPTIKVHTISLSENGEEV
Briefly: Calcium flux assay, ADRA1A. It counts as cell-based.

Assay [13] concerns the target Dopamine Receptor D1 (DRD1) (Homo sapiens, UniProt P21728). Briefly: cAMP assay, DRD1. It counts as cell-based.
The target in assay [14] is Adrenergic Receptor β1 (ADRB1) (Homo sapiens, UniProt P08588). Briefly: cAMP assay, ADRB1. Type of assay: cell-based.
Adrenergic Receptor β1 (ADRB1), sequence (P08588 whole entry): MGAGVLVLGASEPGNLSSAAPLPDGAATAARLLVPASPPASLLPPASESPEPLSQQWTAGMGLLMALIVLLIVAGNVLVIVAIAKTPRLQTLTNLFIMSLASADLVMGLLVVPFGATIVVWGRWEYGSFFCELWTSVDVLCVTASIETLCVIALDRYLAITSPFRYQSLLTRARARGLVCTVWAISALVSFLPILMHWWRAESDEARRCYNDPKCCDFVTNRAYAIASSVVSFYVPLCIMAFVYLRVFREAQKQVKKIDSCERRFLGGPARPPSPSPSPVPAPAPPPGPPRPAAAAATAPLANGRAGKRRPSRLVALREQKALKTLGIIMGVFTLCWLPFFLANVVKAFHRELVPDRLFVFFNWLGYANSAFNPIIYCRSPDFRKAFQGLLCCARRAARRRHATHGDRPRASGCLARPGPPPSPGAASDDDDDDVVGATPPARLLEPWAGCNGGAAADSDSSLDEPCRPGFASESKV

pEC50, pIC50: −log10 of the molar value. Where a name gives a salt, the structure may show the parent alone. Some results are limits rather than exact numbers.

T1 sequence (P31645 whole entry): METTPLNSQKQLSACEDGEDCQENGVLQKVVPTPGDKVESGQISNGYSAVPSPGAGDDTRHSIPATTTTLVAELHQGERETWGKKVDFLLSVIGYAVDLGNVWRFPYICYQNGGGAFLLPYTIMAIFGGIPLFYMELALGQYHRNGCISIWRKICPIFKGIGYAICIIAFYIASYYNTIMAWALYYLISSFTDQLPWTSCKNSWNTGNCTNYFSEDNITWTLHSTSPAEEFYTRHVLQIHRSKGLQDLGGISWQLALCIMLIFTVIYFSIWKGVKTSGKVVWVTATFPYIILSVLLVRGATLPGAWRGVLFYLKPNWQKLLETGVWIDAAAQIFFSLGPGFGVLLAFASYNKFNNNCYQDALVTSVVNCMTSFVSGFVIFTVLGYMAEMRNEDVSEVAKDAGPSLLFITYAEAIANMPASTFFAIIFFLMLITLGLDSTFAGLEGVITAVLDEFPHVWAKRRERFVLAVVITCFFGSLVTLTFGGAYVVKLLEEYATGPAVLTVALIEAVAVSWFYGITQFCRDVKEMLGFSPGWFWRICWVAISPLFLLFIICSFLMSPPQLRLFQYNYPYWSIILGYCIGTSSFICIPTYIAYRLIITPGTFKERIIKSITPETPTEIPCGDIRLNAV
T6 sequence (Q14432 whole entry): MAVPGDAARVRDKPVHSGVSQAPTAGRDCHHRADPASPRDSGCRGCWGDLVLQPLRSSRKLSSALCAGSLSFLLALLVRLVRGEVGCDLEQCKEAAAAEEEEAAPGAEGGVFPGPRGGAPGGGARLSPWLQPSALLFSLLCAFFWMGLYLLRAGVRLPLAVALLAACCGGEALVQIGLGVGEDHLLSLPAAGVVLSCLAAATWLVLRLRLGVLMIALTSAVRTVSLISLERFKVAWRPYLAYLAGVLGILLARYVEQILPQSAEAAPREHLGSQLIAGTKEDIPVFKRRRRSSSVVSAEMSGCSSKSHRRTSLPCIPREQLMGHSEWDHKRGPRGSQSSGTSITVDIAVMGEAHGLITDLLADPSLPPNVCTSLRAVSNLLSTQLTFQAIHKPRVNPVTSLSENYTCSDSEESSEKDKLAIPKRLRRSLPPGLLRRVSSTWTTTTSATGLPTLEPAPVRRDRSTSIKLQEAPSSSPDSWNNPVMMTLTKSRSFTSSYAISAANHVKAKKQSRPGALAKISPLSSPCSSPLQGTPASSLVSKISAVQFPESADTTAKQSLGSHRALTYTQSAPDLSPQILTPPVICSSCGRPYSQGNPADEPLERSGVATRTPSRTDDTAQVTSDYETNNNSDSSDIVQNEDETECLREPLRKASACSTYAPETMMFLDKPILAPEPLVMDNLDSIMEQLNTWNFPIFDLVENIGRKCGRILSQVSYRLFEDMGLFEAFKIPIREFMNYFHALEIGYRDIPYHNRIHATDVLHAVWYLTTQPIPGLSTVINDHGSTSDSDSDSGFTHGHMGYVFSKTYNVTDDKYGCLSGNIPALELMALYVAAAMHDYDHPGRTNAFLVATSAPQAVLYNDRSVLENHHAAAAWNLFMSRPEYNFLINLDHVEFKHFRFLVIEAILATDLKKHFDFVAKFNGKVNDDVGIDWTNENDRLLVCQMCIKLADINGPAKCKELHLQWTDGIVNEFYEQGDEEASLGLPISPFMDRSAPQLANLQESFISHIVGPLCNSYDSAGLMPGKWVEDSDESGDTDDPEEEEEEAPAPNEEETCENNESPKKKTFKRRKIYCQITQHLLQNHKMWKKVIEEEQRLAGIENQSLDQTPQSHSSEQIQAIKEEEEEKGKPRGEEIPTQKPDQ
T3 sequence (Q12809 whole entry): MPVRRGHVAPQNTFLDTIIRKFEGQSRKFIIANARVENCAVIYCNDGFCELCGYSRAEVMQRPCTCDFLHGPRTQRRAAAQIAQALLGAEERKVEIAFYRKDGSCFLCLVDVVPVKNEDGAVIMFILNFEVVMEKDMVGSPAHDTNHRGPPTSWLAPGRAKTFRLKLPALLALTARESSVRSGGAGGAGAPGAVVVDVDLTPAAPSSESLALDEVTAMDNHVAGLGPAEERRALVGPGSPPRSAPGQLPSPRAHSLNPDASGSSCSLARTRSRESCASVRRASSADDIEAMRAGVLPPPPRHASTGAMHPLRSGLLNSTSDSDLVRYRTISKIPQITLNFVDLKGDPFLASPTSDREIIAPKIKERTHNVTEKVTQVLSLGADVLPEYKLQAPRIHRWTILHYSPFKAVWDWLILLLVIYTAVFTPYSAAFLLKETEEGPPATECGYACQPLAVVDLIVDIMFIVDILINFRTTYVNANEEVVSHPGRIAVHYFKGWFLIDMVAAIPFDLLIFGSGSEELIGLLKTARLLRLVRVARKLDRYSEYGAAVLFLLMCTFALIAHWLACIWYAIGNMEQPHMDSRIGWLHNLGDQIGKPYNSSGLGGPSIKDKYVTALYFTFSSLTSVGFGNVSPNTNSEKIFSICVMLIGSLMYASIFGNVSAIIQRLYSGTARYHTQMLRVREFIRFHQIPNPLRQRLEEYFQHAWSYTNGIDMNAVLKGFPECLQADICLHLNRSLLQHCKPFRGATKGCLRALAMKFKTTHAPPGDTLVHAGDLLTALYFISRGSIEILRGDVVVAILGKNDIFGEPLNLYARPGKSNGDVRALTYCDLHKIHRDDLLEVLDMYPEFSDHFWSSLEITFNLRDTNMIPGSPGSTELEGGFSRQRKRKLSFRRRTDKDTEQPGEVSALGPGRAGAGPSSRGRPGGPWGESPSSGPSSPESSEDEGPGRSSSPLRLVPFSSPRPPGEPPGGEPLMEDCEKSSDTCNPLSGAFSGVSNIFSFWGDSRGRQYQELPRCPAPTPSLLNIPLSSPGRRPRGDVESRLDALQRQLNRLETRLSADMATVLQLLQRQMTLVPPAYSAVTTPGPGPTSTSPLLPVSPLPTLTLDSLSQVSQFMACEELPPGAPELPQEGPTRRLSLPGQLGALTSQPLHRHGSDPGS
Dopamine Receptor D2 (DRD2S), sequence (P14416 1-414 isoform P14416-2): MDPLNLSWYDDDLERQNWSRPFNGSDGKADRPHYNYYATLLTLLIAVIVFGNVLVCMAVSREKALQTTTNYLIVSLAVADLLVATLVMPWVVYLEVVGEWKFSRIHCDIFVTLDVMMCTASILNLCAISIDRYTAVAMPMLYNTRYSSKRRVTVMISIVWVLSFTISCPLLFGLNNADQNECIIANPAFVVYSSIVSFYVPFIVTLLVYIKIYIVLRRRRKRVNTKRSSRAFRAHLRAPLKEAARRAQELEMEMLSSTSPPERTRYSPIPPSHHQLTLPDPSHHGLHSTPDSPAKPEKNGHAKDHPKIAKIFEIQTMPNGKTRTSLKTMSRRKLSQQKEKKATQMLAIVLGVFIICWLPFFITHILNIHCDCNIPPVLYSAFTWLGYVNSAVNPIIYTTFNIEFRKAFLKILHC

As for `CNC(C)C(=O)c1c[nH]c2ccc(Br)cc12` (stereo not drawn) [BK-5Br-NM-AMT, 1-(5-bromo-1H-indol-3-yl)-2-(methylamino) propan-1-one hydrochloride], the pIC50 is < 5.00 in assay [1]; < 5.00 in assay [2]; < 5.00 in assay [3]; 5.37 in assay [4]; < 5.00 in [5]; 6.17 in assay [6]. The negative-log IC50 (pIC50) is < 5.00 in [7]; < 5.00 in assay [8]; < 5.00 in [9]; < 5.00 in assay [10]; 5.06 in assay [11]; < 5.00 in [12]. In addition, the results for the pIC50 in assay [13] and in assay [14] were 5.01 and < 5.00, respectively. The pEC50 in assay [2], in assay [4], in [5], in assay [6], in assay [8] and in assay [10] was < 5.00 throughout. For the same compound, the pEC50 in assay [11] was < 5.00; in assay [12], 5.08; in assay [13], < 5.00; in assay [14], < 5.00.

On to `CNC(C)C(=O)c1c[nH]c2ccc(Cl)cc12` (stereo not drawn) [BK-5Cl-NM-AMT, 1-(5-chloro-1H-indol-3-yl)-2-(methylamino) propan-1-one hydrochloride], for which the pIC50 in [1] is < 5.00; in [2], < 5.00; in assay [3], < 5.00; in assay [4], 5.21; in assay [5], < 5.00; in assay [6] it was 6.02. Besides, the pIC50 in assay [7], in [8], in assay [9], in assay [10], in [11] and in [12] was < 5.00 in each case. In addition, the pIC50 in assay [13] and in assay [14] was < 5.00 each time. Also, the pEC50 in assay [2], in assay [4], in assay [5], in assay [6], in assay [8] and in [10] was < 5.00 in each case. Also, the negative-log EC50 (pEC50) in assay [11], in assay [12], in assay [13] and in assay [14] was < 5.00 each time.

Consider `CNC(C)C(=O)c1c[nH]c2ccc(F)cc12` (stereo not drawn) [BK-5F-NM-AMT, 1-(5-Fluoro-1H-indol-3-yl)-2-(methylamino) propan-1-one hydrochloride], for which the negative logarithm of the IC50 (pIC50) in assay [1] is < 5.00; in assay [2] it was < 5.00; in assay [3], < 5.00; in [4] it was 5.28; in assay [5], < 5.00; in [6] it was < 4.52. The pIC50 in assay [7], in [8], in assay [9], in assay [10], in [11] and in assay [12] was < 5.00 throughout. In addition, the pIC50 in [13] and in assay [14] was < 5.00 throughout. In addition, the pEC50 in assay [2], in [4], in assay [5], in [6], in assay [8] and in assay [10] was < 5.00 throughout. Further, the pEC50 in assay [11], in assay [12], in assay [13] and in assay [14] was < 5.00 each time.
